# In patent US5132302A, “Use of aromatic aminoalkoxy derivatives for the treatment of troubles of the cerebrovascular system” (priority 1989, dated 1992):
# Like-named read-outs stand apart in the source and are kept apart here.
# Test system: isolated balisar artery of a rabbit
# Assay: test of contractions of the isolated balisar artery of a rabbit in a hypopotassic medium (contraction induced by KC1)
# Assay type: cell-based
# Conditions: Oryctolagus cuniculus, read-out: IC50 (concentrations which reduce by 50% the amplitude of the contraction induced by KC1)
# Method: The protocol of this test is the following. The rabbit is anaesthetized with pentobarbital at a dose of 30 mg/kg then sacrificed by exsanguination and decapitated at the level of the third cervical vertebra. The balisar artery is removed (1.5 cm) between the vertebral arteries and the polygon of Willis. The balisar artery is then cut in a spiral at an angle of 45° . It is fixed by means of a curved needle between an L shaped glass carrier and a displacement sensor (Grass, type FT03). A mechanical tension of 500 mg is applied to the vessel before letting it reach its balance state.
# For a period of an hour, the vessel is rinsed every twenty minutes until a stable level is obtained.
# The tonic contraction consecutive to depolarization caused by KC1 is dependent on the calcic movements for it is abolished by the suppression of calcium in the survival medium.
# [1] = isolated rabbit balisar artery, KC1 at 35 mmoles
Compound,IC50 [1],IC50
COc1ccc(OC)c(C(O)CCc2ccccc2)c1OCCN1CCCCC1 (stereo not shown) [compound 3],400 nM,–
COc1ccc(OC)c(C(O)CCc2ccc(O)cc2)c1OCCN1CCCCC1 (stereo not shown) [compound 10],26 nM,–
COc1cc(Cl)c(OC)c(OCCN(C(C)C)C(C)C)c1C(O)CCc1ccc(O)cc1 (stereo not shown) [compound 71],9.8 nM,–
COc1cc(F)c(OC)c(OCCN2CCCCC2)c1C(O)CCc1ccc(O)cc1 (stereo not shown) [compound 72],–,3 nM

# Continued by falling IC50 [1], values first:
IC50 [1],Compound,IC50
7.2 nM,CCN(CC)CCOc1c(OC)c(Cl)cc(OC)c1C(O)CCc1ccc(O)cc1 (stereo not shown) [compound 70],–
2.3 nM,COc1cc(Cl)c(OC)c(OCCN2CCCCC2)c1C(O)CCc1ccc(O)cc1 (stereo not shown) [compound 69],–
1.4 nM,COc1cc([N+](=O)[O-])c(OC)c(C(O)CCc2ccc(O)cc2)c1OCCN1CCCCC1 (stereo not shown) [compound 74],–
